Assay: Release kinetics from multi-drug macrospheres
Type: physicochemical
Settings: salicylate in outer Eudragit RL 100 coating, acyclovir in core
Text: Fluidized bed spraying of 5% RL 100-coated 40% Acyclovir (ACV) loaded cores with 25% sodium salicylate w/w in a 10% RL 100-coating was then used to produce multi-drug macrospheres.
The starting material was the product of Example 2 (5% w/w RL 100 coated 40% ACV cores and overcoat with 10% RL 100 coating containing 25% w/w sodium salicylate). Overcoating with a 10% w/w coating of RL100 containing 25% w/w salicylate was used to produce a biphasic drug system. Sodium salicylate should be quickly delivered followed by acyclovir release. A 176.0 g lot of beads, 40% w/w Acyclovir (1.4-2.36 mm) was used as the cores for the coatings.
The release kinetics of the two drugs from the macrospheres of Example 6 were then determined. FIG. 6 is a graph of release of acyclovir (ACV) and salicylate as a function of percent total acyclovir loading, over time (in hours), from macrospheres wherein the salicylate is encapsulated in an outer Eudragit® RL 100 coating and the acyclovir is encapsulated in the core. The outer drug loading is used to achieve rapid release (three hours) as compared to more long term release of the core drug (24 hours).

| Compound | time of release of drug from multi-drug macrospheres [h] | time of release of drug from multi-drug macrospheres (listed as salicylate) |
| --- | --- | --- |
| Nc1nc2c(ncn2COCCO)c(=O)[nH]1 [acyclovir] | 24 |  |
| O=C([O-])c1ccccc1O.[Na+] [sodium salicylate] | ≤ 3 | three |

From patent US20050064027A1, “Bioadhesive drug delivery system with enhanced gastric retention” (Spherics, Inc., priority 2001, published 2005)
